Measurements: ChEMBL document CHEMBL4330132, “5-Keto-3-cyano-2,4-diaminothiophenes as selective maternal embryonic leucine zipper kinase inhibitors” (Bioorg Med Chem Lett, 2019)

Legend:
[1] = biological target: Tyrosine-protein kinase Lck (Homo sapiens) (UniProt P06239); assay: Binding affinity to wild-type human partial length LCK (R207 to P509 residues) expressed in bacterial expression system assessed as residual binding level at 1 uM by Kinomescan method relative to control
[2] = biological target: Phosphorylase b kinase gamma catalytic chain, skeletal muscle/heart isoform (Homo sapiens) (UniProt Q16816); assay: Binding affinity to wild-type human full length PHKG1 (M1 to Y387 residues) expressed in bacterial expression system assessed as residual binding level at 1 uM by Kinomescan method relative to control
[3] = biological target: Serine/threonine-protein kinase 33 (Homo sapiens) (UniProt Q9BYT3); assay: Binding affinity to wild-type human full length STK33 (M1 to L514 residues) expressed in bacterial expression system assessed as residual binding level at 1 uM by Kinomescan method relative to control
[4] = biological target: Myosin-IIIa (Homo sapiens) (UniProt Q8NEV4); assay: Binding affinity to wild-type human partial length MYO3A (M1 to K338 residues) expressed in bacterial expression system assessed as residual binding level at 1 uM by Kinomescan method relative to control
[5] = biological target: LIM domain kinase 2 (Homo sapiens) (UniProt P53671); assay: Binding affinity to wild-type human full length LIMK2 (M1 to P638 residues) expressed in bacterial expression system assessed as residual binding level at 1 uM by Kinomescan method relative to control
[6] = biological target: Cyclin-dependent kinase 7 (Homo sapiens) (UniProt P50613); assay: Binding affinity to wild-type human full length CDK7 (M1 to L344 residues) expressed in mammalian expression system assessed as residual binding level at 1 uM by Kinomescan method relative to control
Chain of Cyclin-dependent kinase 7 (Homo sapiens) (P50613 whole entry, the tested form may be a part): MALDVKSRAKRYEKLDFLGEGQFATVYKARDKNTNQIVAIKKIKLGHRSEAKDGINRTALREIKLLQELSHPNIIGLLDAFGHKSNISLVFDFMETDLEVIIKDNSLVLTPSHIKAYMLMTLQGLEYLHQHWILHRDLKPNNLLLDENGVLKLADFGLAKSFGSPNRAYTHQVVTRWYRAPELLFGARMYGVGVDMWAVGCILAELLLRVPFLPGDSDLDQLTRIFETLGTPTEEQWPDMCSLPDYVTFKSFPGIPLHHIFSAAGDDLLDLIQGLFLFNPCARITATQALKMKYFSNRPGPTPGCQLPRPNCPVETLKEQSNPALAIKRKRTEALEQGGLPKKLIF

[7] = biological target: Tyrosine-protein kinase ITK/TSK (Homo sapiens) (UniProt Q08881); assay: Binding affinity to wild-type human partial length ITK (R335 to L620 residues) expressed in bacterial expression system assessed as residual binding level at 1 uM by Kinomescan method relative to control
[8] = tested on: Epidermal growth factor receptor (Homo sapiens), P00533 [UNDEFINED MUTATION]; assay: Binding affinity to human partial length EGFR S752-I759del mutant expressed in bacterial expression system assessed as residual binding level at 1 uM by Kinomescan method relative to control
Chain of Epidermal growth factor receptor (Homo sapiens), P00533 [UNDEFINED MUTATION] (P00533 whole entry, looked up, stated change not applied, the tested form may be a part): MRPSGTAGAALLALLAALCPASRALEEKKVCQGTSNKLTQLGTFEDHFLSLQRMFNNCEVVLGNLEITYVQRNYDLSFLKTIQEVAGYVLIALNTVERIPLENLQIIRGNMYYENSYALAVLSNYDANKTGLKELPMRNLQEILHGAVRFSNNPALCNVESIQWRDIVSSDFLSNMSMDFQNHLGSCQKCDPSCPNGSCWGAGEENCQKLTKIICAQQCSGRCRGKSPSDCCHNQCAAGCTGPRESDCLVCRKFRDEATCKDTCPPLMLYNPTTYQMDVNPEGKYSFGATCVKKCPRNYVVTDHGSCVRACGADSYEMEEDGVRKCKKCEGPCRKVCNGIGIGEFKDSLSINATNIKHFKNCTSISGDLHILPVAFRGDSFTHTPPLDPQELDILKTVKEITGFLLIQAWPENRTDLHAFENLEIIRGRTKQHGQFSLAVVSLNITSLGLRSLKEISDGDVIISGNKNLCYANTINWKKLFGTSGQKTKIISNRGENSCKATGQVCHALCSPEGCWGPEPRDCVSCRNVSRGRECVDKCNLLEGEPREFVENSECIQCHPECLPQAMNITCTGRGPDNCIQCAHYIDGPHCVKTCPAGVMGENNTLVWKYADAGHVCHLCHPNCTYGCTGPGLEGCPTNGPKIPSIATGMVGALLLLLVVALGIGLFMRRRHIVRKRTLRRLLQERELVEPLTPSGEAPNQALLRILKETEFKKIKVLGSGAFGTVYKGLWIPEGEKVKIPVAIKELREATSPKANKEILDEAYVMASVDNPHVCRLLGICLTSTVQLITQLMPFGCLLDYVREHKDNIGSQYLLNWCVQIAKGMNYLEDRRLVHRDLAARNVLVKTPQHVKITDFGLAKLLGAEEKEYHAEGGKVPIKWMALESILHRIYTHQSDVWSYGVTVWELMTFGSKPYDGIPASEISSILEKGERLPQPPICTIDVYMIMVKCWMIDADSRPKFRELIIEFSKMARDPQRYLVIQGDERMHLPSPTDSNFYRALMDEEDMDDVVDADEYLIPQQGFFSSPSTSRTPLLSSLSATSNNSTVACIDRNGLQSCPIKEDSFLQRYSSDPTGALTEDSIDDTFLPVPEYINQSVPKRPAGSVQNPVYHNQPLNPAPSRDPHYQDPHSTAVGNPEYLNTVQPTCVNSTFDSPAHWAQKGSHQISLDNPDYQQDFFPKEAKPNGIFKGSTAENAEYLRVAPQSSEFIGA

[9] = biological target: Cyclin-dependent kinase 16 (Homo sapiens) (UniProt Q00536); assay: Binding affinity to wild-type human partial length PCTK1 (G160 to A474 residues) expressed in mammalian expression system assessed as residual binding level at 1 uM by Kinomescan method relative to control
[10] = biological target: Serine/threonine-protein kinase MRCK alpha (Homo sapiens) (UniProt Q5VT25); assay: Binding affinity to wild-type human partial length MRCKA (L57 to V418 residues) expressed in bacterial expression system assessed as residual binding level at 1 uM by Kinomescan method relative to control
[11] = biological target: Phosphatidylinositol 4-phosphate 5-kinase type-1 alpha (Homo sapiens) (UniProt Q99755); assay: Binding affinity to wild-type human full length PIP5K1A (M1 to H562 residues) expressed in bacterial expression system assessed as residual binding level at 1 uM by Kinomescan method relative to control
Chain of Phosphatidylinositol 4-phosphate 5-kinase type-1 alpha (Homo sapiens) (Q99755 whole entry, the tested form may be a part): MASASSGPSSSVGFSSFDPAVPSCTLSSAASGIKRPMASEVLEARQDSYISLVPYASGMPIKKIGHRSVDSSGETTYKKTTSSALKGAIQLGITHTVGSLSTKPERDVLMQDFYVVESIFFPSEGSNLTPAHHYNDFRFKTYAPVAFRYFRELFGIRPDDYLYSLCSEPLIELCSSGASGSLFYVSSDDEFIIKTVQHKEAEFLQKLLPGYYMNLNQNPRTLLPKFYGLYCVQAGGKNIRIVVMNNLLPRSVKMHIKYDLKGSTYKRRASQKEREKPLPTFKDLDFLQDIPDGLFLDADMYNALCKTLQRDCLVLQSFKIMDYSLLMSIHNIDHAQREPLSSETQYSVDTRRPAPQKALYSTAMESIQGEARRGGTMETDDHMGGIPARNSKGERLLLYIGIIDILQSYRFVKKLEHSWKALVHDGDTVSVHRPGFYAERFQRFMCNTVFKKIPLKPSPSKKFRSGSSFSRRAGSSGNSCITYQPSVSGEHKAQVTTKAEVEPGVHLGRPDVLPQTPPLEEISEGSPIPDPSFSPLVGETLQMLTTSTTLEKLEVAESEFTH

[12] = biological target: Serine/threonine-protein kinase TAO1 (Homo sapiens) (UniProt Q7L7X3); assay: Binding affinity to wild-type human partial length TAOK1 (M1 to A320 residues) expressed in mammalian expression system assessed as residual binding level at 1 uM by Kinomescan method relative to control
[13] = biological target: Mitogen-activated protein kinase 14 (Homo sapiens) (UniProt Q16539); assay: Binding affinity to wild-type human full length p38-alpha (M1 to S360 residues) expressed in bacterial expression system assessed as residual binding level at 1 uM by Kinomescan method relative to control
Chain of Mitogen-activated protein kinase 14 (Homo sapiens) (Q16539 whole entry, the tested form may be a part): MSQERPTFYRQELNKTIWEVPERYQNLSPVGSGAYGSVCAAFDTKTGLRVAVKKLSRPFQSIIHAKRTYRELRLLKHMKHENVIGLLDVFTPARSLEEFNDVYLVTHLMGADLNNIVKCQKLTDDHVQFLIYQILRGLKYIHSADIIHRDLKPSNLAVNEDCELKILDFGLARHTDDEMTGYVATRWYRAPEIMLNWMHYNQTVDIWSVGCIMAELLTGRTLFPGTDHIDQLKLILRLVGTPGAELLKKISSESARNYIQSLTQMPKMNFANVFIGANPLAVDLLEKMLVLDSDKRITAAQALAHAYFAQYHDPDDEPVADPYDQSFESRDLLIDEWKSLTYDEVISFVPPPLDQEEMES

[14] = biological target: MAP kinase-interacting serine/threonine-protein kinase 2 (Homo sapiens) (UniProt Q9HBH9); assay: Binding affinity to wild-type human partial length MKNK2 (G63 to S388 residues) expressed in mammalian expression system assessed as residual binding level at 1 uM by Kinomescan method relative to control
[15] = biological target: Serine/threonine-protein kinase MRCK beta (Homo sapiens) (UniProt Q9Y5S2); assay: Binding affinity to wild-type human partial length MRCKB (L56 to S417 residues) expressed in bacterial expression system assessed as residual binding level at 1 uM by Kinomescan method relative to control
[16] = tested on: Mast/stem cell growth factor receptor Kit (Homo sapiens), P10721 [D816H]; assay: Binding affinity to human partial length KIT D816H mutant (I571 to D952 residues) expressed in mammalian expression system assessed as residual binding level at 1 uM by Kinomescan method relative to control
[17] = biological target: Discoidin domain-containing receptor 2 (Homo sapiens) (UniProt Q16832); assay: Binding affinity to wild-type human partial length DDR2 (V555 to E855 residues) expressed in mammalian expression system assessed as residual binding level at 1 uM by Kinomescan method relative to control
[18] = biological target: Insulin receptor (Homo sapiens) (UniProt P06213); assay: Binding affinity to wild-type human partial length INSR (P997 to E1318 residues) expressed in mammalian expression system assessed as residual binding level at 1 uM by Kinomescan method relative to control
Chain of Insulin receptor (Homo sapiens) (P06213 28-758 limits assumed): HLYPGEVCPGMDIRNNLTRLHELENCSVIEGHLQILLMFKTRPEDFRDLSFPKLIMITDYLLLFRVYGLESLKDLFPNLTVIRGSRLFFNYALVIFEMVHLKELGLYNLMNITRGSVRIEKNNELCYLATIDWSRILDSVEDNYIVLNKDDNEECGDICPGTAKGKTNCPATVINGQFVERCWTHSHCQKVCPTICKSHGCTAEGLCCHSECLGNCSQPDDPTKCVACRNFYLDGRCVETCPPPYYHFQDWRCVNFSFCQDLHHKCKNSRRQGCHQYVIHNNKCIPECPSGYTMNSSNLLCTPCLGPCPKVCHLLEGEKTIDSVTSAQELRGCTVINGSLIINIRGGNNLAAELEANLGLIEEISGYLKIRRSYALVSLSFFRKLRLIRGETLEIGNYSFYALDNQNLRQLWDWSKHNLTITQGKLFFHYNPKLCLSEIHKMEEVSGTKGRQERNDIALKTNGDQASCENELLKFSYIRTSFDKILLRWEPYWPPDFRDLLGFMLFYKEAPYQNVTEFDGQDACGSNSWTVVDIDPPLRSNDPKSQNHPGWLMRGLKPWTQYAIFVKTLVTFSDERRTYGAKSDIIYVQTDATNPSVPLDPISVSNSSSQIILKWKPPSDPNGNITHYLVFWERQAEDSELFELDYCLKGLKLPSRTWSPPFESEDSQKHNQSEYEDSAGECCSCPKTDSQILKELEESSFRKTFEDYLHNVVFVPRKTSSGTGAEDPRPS
Chain of Insulin receptor (Homo sapiens) (P06213 763-1382 limits assumed): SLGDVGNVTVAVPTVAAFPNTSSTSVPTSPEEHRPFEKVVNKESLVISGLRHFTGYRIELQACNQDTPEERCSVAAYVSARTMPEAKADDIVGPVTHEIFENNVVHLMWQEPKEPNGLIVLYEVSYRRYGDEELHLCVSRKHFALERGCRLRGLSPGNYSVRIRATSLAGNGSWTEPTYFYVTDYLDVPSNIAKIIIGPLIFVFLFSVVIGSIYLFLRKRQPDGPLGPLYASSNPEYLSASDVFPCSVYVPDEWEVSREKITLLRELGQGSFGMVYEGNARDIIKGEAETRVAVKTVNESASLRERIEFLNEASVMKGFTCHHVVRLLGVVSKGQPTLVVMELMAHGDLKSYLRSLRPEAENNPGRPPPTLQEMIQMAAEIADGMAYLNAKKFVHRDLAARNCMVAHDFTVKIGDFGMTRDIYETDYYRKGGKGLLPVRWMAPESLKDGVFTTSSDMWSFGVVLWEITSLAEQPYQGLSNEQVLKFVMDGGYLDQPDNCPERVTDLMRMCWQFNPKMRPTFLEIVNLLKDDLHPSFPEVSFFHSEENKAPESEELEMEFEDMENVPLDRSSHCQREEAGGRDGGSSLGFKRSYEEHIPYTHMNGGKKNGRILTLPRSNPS

[19] = tested on: Proto-oncogene tyrosine-protein kinase receptor Ret (Homo sapiens), P07949 [V804M]; assay: Binding affinity to human partial length RET V804M mutant (E713 to D1014 residues) expressed in bacterial expression system assessed as residual binding level at 1 uM by Kinomescan method relative to control
[20] = biological target: Tyrosine-protein kinase ABL1 (Homo sapiens) (UniProt P00519); assay: Binding affinity to wild-type human phosphorylated ABL1 (S229 to K512 residues) expressed in mammalian expression system assessed as residual binding level at 1 uM by Kinomescan method relative to control
Chain of Tyrosine-protein kinase ABL1 (Homo sapiens) (P00519 whole entry, the tested form may be a part): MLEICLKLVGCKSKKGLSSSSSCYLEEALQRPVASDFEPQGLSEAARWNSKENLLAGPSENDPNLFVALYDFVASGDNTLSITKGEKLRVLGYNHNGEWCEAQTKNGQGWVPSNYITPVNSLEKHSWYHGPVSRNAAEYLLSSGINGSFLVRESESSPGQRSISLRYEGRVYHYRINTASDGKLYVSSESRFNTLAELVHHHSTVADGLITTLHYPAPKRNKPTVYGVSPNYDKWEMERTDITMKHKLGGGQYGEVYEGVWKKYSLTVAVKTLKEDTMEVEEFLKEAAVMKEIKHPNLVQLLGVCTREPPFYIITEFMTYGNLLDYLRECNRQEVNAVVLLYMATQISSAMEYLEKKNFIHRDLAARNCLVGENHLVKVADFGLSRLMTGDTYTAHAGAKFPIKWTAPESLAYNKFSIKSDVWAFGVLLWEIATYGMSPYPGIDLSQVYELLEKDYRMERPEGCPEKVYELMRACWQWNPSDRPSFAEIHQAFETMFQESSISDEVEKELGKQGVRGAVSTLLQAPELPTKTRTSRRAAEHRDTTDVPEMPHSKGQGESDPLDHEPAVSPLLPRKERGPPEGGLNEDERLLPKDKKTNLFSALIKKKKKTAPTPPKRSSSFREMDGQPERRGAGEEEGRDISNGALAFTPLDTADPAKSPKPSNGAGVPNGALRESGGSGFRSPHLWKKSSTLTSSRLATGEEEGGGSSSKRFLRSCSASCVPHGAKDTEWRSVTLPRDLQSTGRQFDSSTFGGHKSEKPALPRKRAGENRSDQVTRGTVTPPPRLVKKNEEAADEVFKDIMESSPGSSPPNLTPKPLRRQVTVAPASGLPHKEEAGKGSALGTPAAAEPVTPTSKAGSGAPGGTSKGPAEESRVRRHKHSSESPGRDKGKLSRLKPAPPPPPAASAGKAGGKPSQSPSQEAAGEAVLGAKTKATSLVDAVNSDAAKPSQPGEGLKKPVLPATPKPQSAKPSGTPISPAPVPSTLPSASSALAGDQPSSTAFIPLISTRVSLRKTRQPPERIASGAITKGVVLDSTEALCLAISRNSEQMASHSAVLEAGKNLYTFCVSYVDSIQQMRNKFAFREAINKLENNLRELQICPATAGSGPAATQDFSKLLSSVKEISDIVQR

[21] = biological target: Tyrosine-protein kinase JAK2 (Homo sapiens) (UniProt O60674); assay: Binding affinity to wild-type human partial length JAK2 JH1 catalytic domain (A829 to G1132 residues) expressed in mammalian expression system assessed as residual binding level at 1 uM by Kinomescan method relative to control
[22] = biological target: G protein-coupled receptor kinase 4 (Homo sapiens) (UniProt P32298); assay: Binding affinity to wild-type human full length GRK4 (M1 to C578 residues) expressed in bacterial expression system assessed as residual binding level at 1 uM by Kinomescan method relative to control
[23] = tested on: Mast/stem cell growth factor receptor Kit (Homo sapiens), P10721 [L576P]; assay: Binding affinity to human partial length KIT L576P mutant (Y545 to D952 residues) expressed in bacterial expression system assessed as residual binding level at 1 uM by Kinomescan method relative to control
[24] = biological target: Megakaryocyte-associated tyrosine-protein kinase (Homo sapiens) (UniProt P42679); assay: Binding affinity to wild-type human full length CTK (M43 to P508 residues) expressed in mammalian expression system assessed as residual binding level at 1 uM by Kinomescan method relative to control

**Q.** Which Activity [1] does the source give for CC(C)Nc1sc(C(=O)c2ccc(Cl)s2)c(N)c1C#N here?
**A.** 93%

**Q.** What about the Activity [2] of the same molecule?
**A.** 89%

**Q.** What about the Activity [3] of the same molecule?
**A.** 57%

**Q.** What about the Activity [4] of the same molecule?
**A.** 75%

**Q.** And the Activity [5]?
**A.** 100%

**Q.** What about the Activity [6] of the same molecule?
**A.** 100%

**Q.** And the Activity [7]?
**A.** 93%

**Q.** And the Activity [8]?
**A.** 75%

**Q.** And the Activity [9]?
**A.** 100%

**Q.** What about the Activity [10] of the same molecule?
**A.** 87%

**Q.** And the Activity [11]?
**A.** 81%

**Q.** And the Activity [12]?
**A.** 100%

**Q.** What about the Activity [13] of the same molecule?
**A.** 95%

**Q.** What about the Activity [14] of the same molecule?
**A.** 100%

**Q.** And the Activity [15]?
**A.** 90%

**Q.** And the Activity [16]?
**A.** 77%

**Q.** And the Activity [17]?
**A.** 100%

**Q.** What about the Activity [18] of the same molecule?
**A.** 80%

**Q.** What about the Activity [19] of the same molecule?
**A.** 94%

**Q.** What about the Activity [20] of the same molecule?
**A.** 100%

**Q.** And the Activity [21]?
**A.** 100%

**Q.** And the Activity [22]?
**A.** 74%

**Q.** What about the Activity [23] of the same molecule?
**A.** 64%

**Q.** And the Activity [24]?
**A.** 100%
